Molecules are shown by their SMILES. Like-named read-outs stand apart in the source and are kept apart here.

Consider 34 compounds from US12091411B2, “IRAK degraders and uses thereof” (Kymera Therapeutics, Inc., priority 2022, dated 2024).

The target in this test is T1, IRAK4 (Homo sapiens, UniProt Q9NWZ3).
T1 construct: Degradation of IRAK4 in OCI-LY10 was quantitatively measured using Meso Scale Discovery technology; endogenous in cells; host or cells: OCI-LY10
T1 sequence (Q9NWZ3 1-460): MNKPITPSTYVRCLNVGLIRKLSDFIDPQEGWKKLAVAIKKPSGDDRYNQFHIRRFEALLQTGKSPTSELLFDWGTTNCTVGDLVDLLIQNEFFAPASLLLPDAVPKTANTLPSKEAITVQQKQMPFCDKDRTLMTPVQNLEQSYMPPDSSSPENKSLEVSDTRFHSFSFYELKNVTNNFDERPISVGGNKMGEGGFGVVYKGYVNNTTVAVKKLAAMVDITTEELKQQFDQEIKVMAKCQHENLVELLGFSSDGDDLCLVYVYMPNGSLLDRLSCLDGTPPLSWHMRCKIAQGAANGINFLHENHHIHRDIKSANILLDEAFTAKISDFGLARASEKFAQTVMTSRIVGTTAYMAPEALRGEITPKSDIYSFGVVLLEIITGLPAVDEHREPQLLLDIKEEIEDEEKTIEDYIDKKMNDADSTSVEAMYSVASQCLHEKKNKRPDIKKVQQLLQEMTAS
Kind of test: IRAK4 MSD Degradation in OCI-LY10. The format is cell-based. The note with it: OCI-LY10 cells, MSD. The gist of the method:
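OCI-LY10 cells exposed to 8-point 1:3 compound series (top 1 to 10 μM) for 4 to 24 h at 37 °C, 5% CO2. Lysate IRAK4 quantified by MSD sandwich immunoassay. DC50 from three-parameter logistic fit, binned A (<0.01 μM) to D (>0.2 μM or not tested).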

Where [1] appears, read: 4 hrs incubation, read-out: IRAK4 degradation in OCI-LY10 at 4 hrs: DC50.
Setting [2] is: 24 hrs incubation, read-out: IRAK4 degradation in OCI-LY10 at 24 hrs: DC50.

For `Cn1c(=O)n(C2CCC(=O)NC2=O)c2cccc(C#CC[C@H]3CN(Cc4ccc(-n5cc(NC(=O)c6cnn7ccc(N8C[C@H]9C[C@@H]8CO9)nc67)c(C(F)F)n5)cc4)CCO3)c21` (some centres unmarked) [I-380], the DC50 (in general, the concentration at which degradation of the target reaches its halfway point) under setting [1] is more than 200 nM and the 50% degradation concentration (DC50) under setting [2] was more than 200 nM.
Turning to `Cn1c(=O)n(C2CCC(=O)NC2=O)c2cccc(C[C@H]3CN(C[C@H]4CC[C@H](n5cc(NC(=O)c6cnn7cccnc67)c(C(F)F)n5)CC4)CCO3)c21` (some centres unmarked) [I-381], the DC50 by setting is: under setting [1], more than 200 nM; under setting [2], more than 200 nM.
Turning to `Cn1c(=O)n(C2CCC(=O)NC2=O)c2cccc(C[C@H]3CN(Cc4ccc(-n5cc(NC(=O)c6cnn7cccnc67)c(C(F)F)n5)cc4)CCO3)c21` (some centres unmarked) [I-382], the 50% degradation concentration (DC50) is more than 200 nM under setting [1] and more than 200 nM under setting [2].
Take `Cn1c(=O)n(C2CCC(=O)NC2=O)c2cccc(C[C@H]3CN(Cc4ccc(-n5cc(NC(=O)c6cnn7ccc(N8C[C@H]9C[C@@H]8CO9)nc67)c(C(F)F)n5)cc4)CCO3)c21` (some centres unmarked) [I-384]: the DC50 by setting is: under setting [1], more than 200 nM; under setting [2], more than 200 nM.
For the compound `Cn1c(=O)n(C2CCC(=O)NC2=O)c2cccc(CC[C@H]3CN(C[C@H]4CC[C@H](n5cc(NC(=O)c6cnn7ccc(N8C[C@H]9C[C@@H]8CO9)nc67)c(C(F)F)n5)CC4)CCO3)c21` (some centres unmarked) [I-385], the DC50 runs as follows: under setting [1], less than 10 nM; under setting [2], more than 200 nM.
Regarding `Cn1c(=O)n(C2CCC(=O)NC2=O)c2cccc(CC[C@H]3CN(Cc4ccc(-n5cc(NC(=O)c6cnn7ccc(N8C[C@H]9C[C@@H]8CO9)nc67)c(C(F)F)n5)cc4)CCO3)c21` (some centres unmarked) [I-386], the DC50 reads like this: under setting [1], more than 200 nM; under setting [2], more than 200 nM.
As to `Cn1c(=O)n(C2CCC(=O)NC2=O)c2cccc(CC[C@H]3CN(C[C@H]4CC[C@H](n5cc(NC(=O)c6cnn7cccnc67)c(C(F)F)n5)CC4)CCO3)c21` (some centres unmarked) [I-387], the half-maximal degradation concentration (DC50) under setting [1] is less than 10 nM and the DC50 under setting [2] is more than 200 nM.
Consider `Cn1c(=O)n(C2CCC(=O)NC2=O)c2cccc(CC[C@H]3CN(Cc4ccc(-n5cc(NC(=O)c6cnn7cccnc67)c(C(F)F)n5)cc4)CCO3)c21` (some centres unmarked) [I-388], for which the DC50 is more than 200 nM under setting [1] and more than 200 nM under setting [2].
Consider `Cn1c(=O)n(C2CCC(=O)NC2=O)c2cccc(C#CC[C@@H]3CN(C[C@H]4CC[C@H](n5cc(NC(=O)c6cnn7ccc(N8C[C@H]9C[C@@H]8CO9)nc67)c(C(F)F)n5)CC4)CCO3)c21` (some centres unmarked) [I-389], for which the DC50 under setting [1] is 10 to 100 nM and the half-maximal degradation concentration (DC50) under setting [2] is more than 200 nM.
The like results for `Cn1c(=O)n(C2CCC(=O)NC2=O)c2cccc(C#CC[C@@H]3CN(Cc4ccc(-n5cc(NC(=O)c6cnn7ccc(N8C[C@H]9C[C@@H]8CO9)nc67)c(C(F)F)n5)cc4)CCO3)c21` (some centres unmarked) [I-390] were, in that order, more than 200 nM and more than 200 nM.
In the case of `Cn1c(=O)n(C2CCC(=O)NC2=O)c2cccc(C[C@@H]3CN(C[C@H]4CC[C@H](n5cc(NC(=O)c6cnn7cccnc67)c(C(F)F)n5)CC4)CCO3)c21` (some centres unmarked) [I-391], the DC50 under setting [1] was more than 200 nM and the half-maximal degradation concentration (DC50) under setting [2] was more than 200 nM.
Regarding `Cn1c(=O)n(C2CCC(=O)NC2=O)c2cccc(C[C@@H]3CN(Cc4ccc(-n5cc(NC(=O)c6cnn7cccnc67)c(C(F)F)n5)cc4)CCO3)c21` (some centres unmarked) [I-392], the DC50 is, setting by setting: under setting [1], more than 200 nM; under setting [2], more than 200 nM.
On to `Cn1c(=O)n(C2CCC(=O)NC2=O)c2cccc(C[C@@H]3CN(C[C@H]4CC[C@H](n5cc(NC(=O)c6cnn7ccc(N8C[C@H]9C[C@@H]8CO9)nc67)c(C(F)F)n5)CC4)CCO3)c21` (some centres unmarked) [I-393], for which the DC50 is more than 200 nM under setting [1] and more than 200 nM under setting [2].
Regarding `Cn1c(=O)n(C2CCC(=O)NC2=O)c2cccc(C[C@@H]3CN(Cc4ccc(-n5cc(NC(=O)c6cnn7ccc(N8C[C@H]9C[C@@H]8CO9)nc67)c(C(F)F)n5)cc4)CCO3)c21` (some centres unmarked) [I-394], the DC50 reads like this: under setting [1], more than 200 nM; under setting [2], more than 200 nM.
For the compound `Cn1c(=O)n(C2CCC(=O)NC2=O)c2cccc(CC[C@@H]3CN(C[C@H]4CC[C@H](n5cc(NC(=O)c6cnn7ccc(N8C[C@H]9C[C@@H]8CO9)nc67)c(C(F)F)n5)CC4)CCO3)c21` (some centres unmarked) [I-395], the DC50 by setting is: under setting [1], more than 200 nM; under setting [2], more than 200 nM.
Consider `Cn1c(=O)n(C2CCC(=O)NC2=O)c2cccc(CC[C@@H]3CN(Cc4ccc(-n5cc(NC(=O)c6cnn7ccc(N8C[C@H]9C[C@@H]8CO9)nc67)c(C(F)F)n5)cc4)CCO3)c21` (some centres unmarked) [I-396], for which the DC50 is, setting by setting: under setting [1], more than 200 nM; under setting [2], more than 200 nM.
As to `Cn1c(=O)n(C2CCC(=O)NC2=O)c2cccc(CC[C@@H]3CN(C[C@H]4CC[C@H](n5cc(NC(=O)c6cnn7cccnc67)c(C(F)F)n5)CC4)CCO3)c21` (some centres unmarked) [I-397], the DC50 runs as follows: under setting [1], more than 200 nM; under setting [2], more than 200 nM.
For `Cn1c(=O)n(C2CCC(=O)NC2=O)c2cccc(CC[C@@H]3CN(Cc4ccc(-n5cc(NC(=O)c6cnn7cccnc67)c(C(F)F)n5)cc4)CCO3)c21` (some centres unmarked) [I-398], the DC50 runs as follows: under setting [1], more than 200 nM; under setting [2], more than 200 nM.
In the case of `Cn1c(=O)n(C2CCC(=O)NC2=O)c2cccc(N3CCC4(CC3)CN(Cc3ccc(-n5cc(NC(=O)c6cnn7cccnc67)c(C(F)F)n5)cc3)C4)c21` (centres unmarked) [I-399], the DC50 was less than 10 nM under setting [1] and more than 200 nM under setting [2].
On to `Cn1c(=O)n(C2CCC(=O)NC2=O)c2cccc(N3CC4(CCN(Cc5ccc(-n6cc(NC(=O)c7cnn8ccc(N9C[C@H]%10C[C@@H]9CO%10)nc78)c(C(F)F)n6)cc5)CC4)C3)c21` (some centres unmarked) [I-400], for which the DC50 by setting is: under setting [1], 10 to 100 nM; under setting [2], more than 200 nM.
As to `Cn1c(=O)n(C2CCC(=O)NC2=O)c2cccc(OC3CC4(CCN(Cc5ccc(-n6cc(NC(=O)c7cnn8ccc(N9C[C@H]%10C[C@@H]9CO%10)nc78)c(C(F)F)n6)cc5)CC4)C3)c21` (some centres unmarked) [I-401], the DC50 is more than 200 nM under setting [1] and more than 200 nM under setting [2].
For the compound `Cn1c(=O)n(C2CCC(=O)NC2=O)c2cccc(CN3CC4(CCN(Cc5ccc(-n6cc(NC(=O)c7cnn8ccc(N9C[C@H]%10C[C@@H]9CO%10)nc78)c(C(F)F)n6)cc5)CC4)C3)c21` (some centres unmarked) [I-402], the DC50 reads like this: under setting [1], more than 200 nM; under setting [2], more than 200 nM.
Turning to `Cn1c(=O)n(C2CCC(=O)NC2=O)c2cccc(N3CCN(C[C@H]4CC[C@H](n5cc(NC(=O)c6cnn7cccnc67)c(C(F)F)n5)CC4)CC3)c21` (some centres unmarked) [I-403], the DC50 was more than 200 nM under setting [1] and more than 200 nM under setting [2].
Take `Cn1c(=O)n(C2CCC(=O)NC2=O)c2cccc(N3CCC4C(C3)OCCN4C[C@H]3CC[C@H](n4cc(NC(=O)c5cnn6cccnc56)c(C(F)F)n4)CC3)c21` (some centres unmarked) [I-404]: the DC50 under setting [1] was more than 200 nM and the DC50 under setting [2] was more than 200 nM.
For the compound `C[C@H]1CN(c2ccn3ncc(C(=O)Nc4cn([C@H]5CC[C@H](CN6CCN(CC#Cc7cccc8c7n(C)c(=O)n8C7CCC(=O)NC7=O)CC6)CC5)nc4C(F)F)c3n2)CCO1` (some centres unmarked) [I-405], the DC50 is, setting by setting: under setting [1], more than 200 nM; under setting [2], more than 200 nM.
Consider `C[C@@H]1CN(c2ccn3ncc(C(=O)Nc4cn([C@H]5CC[C@H](CN6CCN(CC#Cc7cccc8c7n(C)c(=O)n8C7CCC(=O)NC7=O)CC6)CC5)nc4C(F)F)c3n2)CCO1` (some centres unmarked) [I-406], for which the DC50 is, setting by setting: under setting [1], more than 200 nM; under setting [2], less than 10 nM.
For `Cn1c(=O)n(C2CCC(=O)NC2=O)c2cccc(C#CCN3CCN(C[C@H]4CC[C@H](n5cc(NC(=O)c6cnn7ccc(N8CCOC(C(F)F)C8)nc67)c(C(F)F)n5)CC4)CC3)c21` (some centres unmarked) [I-407], the DC50 reads like this: under setting [1], more than 200 nM; under setting [2], more than 200 nM.
As to `Cn1c(=O)n(C2CCC(=O)NC2=O)c2cccc(C#CCN3CCN(C[C@H]4CC[C@H](n5cc(NC(=O)c6cnn7ccc(N8CCN(C(F)(F)F)CC8)nc67)c(C(F)F)n5)CC4)CC3)c21` (some centres unmarked) [I-408], the DC50 was more than 200 nM under setting [1] and more than 200 nM under setting [2].
Consider `Cn1c(=O)n(C2CCC(=O)NC2=O)c2cccc(C#CCN3CCN(C[C@H]4CC[C@H](n5cc(NC(=O)c6cnn7ccc(N8CCN(CC(F)F)CC8)nc67)c(C(F)F)n5)CC4)CC3)c21` (some centres unmarked) [I-409], for which the DC50 runs as follows: under setting [1], more than 200 nM; under setting [2], more than 200 nM.
`Cn1c(=O)n(C2CCC(=O)NC2=O)c2cccc(C#CCN3CCN(C[C@H]4CC[C@H](n5cc(NC(=O)c6cnn7ccc(N8CCN(CC(F)(F)F)CC8)nc67)c(C(F)F)n5)CC4)CC3)c21` (some centres unmarked) [I-410]: the DC50 runs as follows: under setting [1], more than 200 nM; under setting [2], more than 200 nM.
Consider `CN1CCN(c2ccn3ncc(C(=O)Nc4cn([C@H]5CC[C@H](CN6CCN(CC#Cc7cccc8c7n(C)c(=O)n8C7CCC(=O)NC7=O)CC6)CC5)nc4C(F)F)c3n2)CC1C(F)F` (some centres unmarked) [I-411], for which the DC50 is, setting by setting: under setting [1], more than 200 nM; under setting [2], more than 200 nM.
In the case of `CN1CCN(c2ccn3ncc(C(=O)Nc4cn([C@H]5CC[C@H](CN6CCN(CC#Cc7cccc8c7n(C)c(=O)n8C7CCC(=O)NC7=O)CC6)CC5)nc4C(F)F)c3n2)CC1C(F)(F)F` (some centres unmarked) [I-412], the 50% degradation concentration (DC50) under setting [1] was more than 200 nM and the DC50 under setting [2] was more than 200 nM.
As for `CN1CCC(c2ccn3ncc(C(=O)Nc4cn([C@H]5CC[C@H](CN6CCN(CC#Cc7cccc8c7n(C)c(=O)n8C7CCC(=O)NC7=O)CC6)CC5)nc4C(F)F)c3n2)C(F)(F)C1` (some centres unmarked) [I-413], the DC50 reads like this: under setting [1], more than 200 nM; under setting [2], more than 200 nM.
On to `Cn1c(=O)n(C2CCC(=O)NC2=O)c2cccc(C#CCN3CCN(C[C@H]4CC[C@H](n5cc(NC(=O)c6cnn7ccc(N8CC(F)(F)C8)nc67)c(C(F)F)n5)CC4)CC3)c21` (some centres unmarked) [I-414], for which the DC50 is 100 to 200 nM under setting [1] and more than 200 nM under setting [2].
